# Assay results published in article PMC9898759, “The Saccharomyces cerevisiae Yta7 ATPase hexamer contains a unique bromodomain tier that functions in nucleosome disassembly” (The Journal of Biological Chemistry, 2022).
# Assays:
# Yta7 = assay: AlphaScreen binding of biotinylated H3 N-tail peptide (unmodified or acetylated) to full-length Yta7; set-up: species or system Saccharomyces cerevisiae; conditions: for binding to Yta7: 50 nM 10xHis-3xFlag-Yta7, 50 nM biotinylated H3 (1–22 amino acid) peptide, 50 mM Mops pH 7.4, 100 mM NaCl, BSA 0.1 mg/ml, on ice 1.5 h
# Procedure: (§1) We performed AlphaScreen assays using a 6xHis detection kit (PerkinElmer). The biotinylated unmodified and the all-four-lysine acetylated H3 peptide (1–22 amino acids) were synthesized by GenScript. We individually mixed the purified 50 nM 10xHis-3xFlag-Yta7, 10xHis-3xFlag-Yta7ΔBRD, 10xHis-3xFlag-Yta7ΔBIMΔBRD, 6xHis-MBP-BIM, 6xHis-MBP-BRD, and the complex of 6xHis-MBP-BRD and MBP-BIM with 50 nM biotinylated and unmodified or acetylated H3 (1–22 amino acid) peptides, respectively, and incubated the mixtures on ice for 1.5 h with the streptavidin-coated donor beads (5 μg/ml) and nickel-chelated acceptor beads (5 μg/ml) in 50 mM Mops (pH 7.4), 100 mM NaCl, and bovine serum albumin (0.1 mg/ml). For nucleosome-binding assay, we used 50 nM 10xHis-3xFlag-Yta7 and 100 nM biotinylated human nucleosome. We incubated the mixture for 2 h on ice with the same concentration donor and acceptor beads. The donor beads contain a photosensitizer that converts ambient oxygen into short-lived singlet oxygen upon 680 nm light activation. When the acceptor beads are brought close enough to the donor beads by interaction between His-tagged proteins and biotinylated peptides, singlet oxygen can diffuse from the donor to the acceptor beads to transfer the energy to the thioxene derivatives of the acceptor beads, resulting in light emission at 520 to 620 nm range.
# [1] = Malachite Green ATPase assay of Yta7; type: biochemical; conditions: Malachite Green phosphate assay, 2 mM ATP, 25 mM Hepes pH 7.6, 2 mM MgCl2, 150 mM KCl, 1 mM DTT, room temperature 1 h, A620; three independent experiments; Fig. S1C
# Procedure: The Malachite Green Phosphate assay kit (Sigma–Aldrich) was used to measure the ATP hydrolysis rate of Yta7 present in different nucleotides. Yta7 was incubated in assay buffer (25 mM Hepes [pH 7.6], 2 mM MgCl2, 150 mM KCl, and 1 mM DTT) with or without histone-3 peptide (1–24 amino acids). Either 2 mM ATP or 2 mM ATPγS or 2 mM ADP (negative control) was added to initiate the reaction at room temperature for 1 h. Absorbance at 620 nm was measured in a Molecular Devices SpectraMax M2e microplate reader.
# Yta7_ΔBRD = assay: AlphaScreen binding of H3 peptide to Yta7 lacking BRD; set-up: species or system Saccharomyces cerevisiae; conditions: 50 nM construct (954–1132 deleted), 50 nM biotinylated H3 (1–22), pH 7.4, on ice 1.5 h, n = 3, Fig. S9B
# Procedure: as §1
# [2] = tested on: complex of 6xHis-MBP-BRD and MBP-BIM; assay: AlphaScreen binding of H3 peptide to BRD and BIM together; set-up: species or system Saccharomyces cerevisiae
# Procedure: as §1
# 6xHis-MBP-BIM = assay: AlphaScreen binding of H3 peptide to MBP-fused BIM; set-up: species or system Saccharomyces cerevisiae; conditions: n = 3, Fig. S9D
# Procedure: as §1
# Yta7_ΔBIM ΔBRD = assay: AlphaScreen binding of H3 peptide to Yta7 lacking BIM and BRD; set-up: species or system Saccharomyces cerevisiae; conditions: 50 nM construct (320–350 and 954–1132 deleted), 50 nM biotinylated H3 (1–22), pH 7.4, on ice 1.5 h, n = 3, Fig. S9B
# Procedure: as §1
# [3] = AlphaScreen, three independent experiments in triplicate
substance,measurement,setting,value
24-residue H3 N-tail: unmodified H3 peptides (1–24 amino acids) (GenScript),interaction with Yta7 (24-residue H3 N-tail),"Yta7; 24-residue H3 N-tail, Fig. S1, C and D",interacted with
"Yta7: full-length S. cerevisiae Yta7 AAA+ ATPase hexamer, 10xHis and 3xFLAG tagged",ATP hydrolysis,[1],hydrolyzed ATP
"acetylated H3 peptide (1–22 amino acids): biotinylated all-four-lysine acetylated H3 peptide (1–22 amino acids), synthesized by GenScript",binding to Yta7,Yta7; [3],bound Yta7
unmodified H3 peptide (1–22 amino acids),binding to Yta7_ΔBRD,Yta7_ΔBRD,neither Yta7_ΔBRD nor Yta7_ΔBIM ΔBRD bind
same,binding to Yta7,Yta7; [3],bound Yta7
same,binding signal relative to the acetylated version,"Yta7; AlphaScreen, 50 nM Yta7, 50 nM biotinylated H3 (1–22) peptides, pH 7.4, on ice 1.5 h, means of three independent experiments performed in triplicate, Fig. 2H",five times stronger
same,affinity / binding in the presence of ADP or ATPγS,"Yta7; AlphaScreen, biotinylated H3 (1-22 aa), in the presence of ADP or ATPγS, three independent experiments in triplicate, Fig. S1E",unaffected
same,"relative affinity, unmodified vs acetylated H3 peptide","Yta7; AlphaScreen, unmodified compared with acetylated H3 (1–22) peptide, qualitative, listed as unmodified peptide",higher affinity
same,binding signal to BRD–BIM relative to Yta7 hexamer,[2]; BRD–BIM complex vs full-length Yta7 hexamer,an order of magnitude weaker
same,binding signal to BIM and BRD together relative to BRD alone,"[2]; complex of 6xHis-MBP-BRD and MBP-BIM vs 6xHis-MBP-BRD, 50 nM biotinylated H3 (1–22), pH 7.4, n = 3, Fig. S9D",stronger than BRD alone
same,binding signal to BIM alone,"6xHis-MBP-BIM; 50 nM 6xHis-MBP-BIM, 50 nM biotinylated H3 (1–22), pH 7.4, on ice 1.5 h",weak binding signal
same,binding signal to BIM alone relative to MBP control and BRD alone,"6xHis-MBP-BIM; 6xHis-MBP negative control, compared with 6xHis-MBP-BRD",above the MBP control but weaker than BRD alone
same,binding to Yta7_ΔBIM ΔBRD,Yta7_ΔBIM ΔBRD,neither Yta7_ΔBRD nor Yta7_ΔBIM ΔBRD bind
